Molecules are shown by their SMILES. Where only a bound is given, the exact number is not on record here.

The target of the assay is T1, human CRF1 receptor (Homo sapiens, UniProt P34998).
T1 construct: expressed in transfected cells; host or cells: CHO cells (membrane fraction)
T1 sequence (P34998 24-415): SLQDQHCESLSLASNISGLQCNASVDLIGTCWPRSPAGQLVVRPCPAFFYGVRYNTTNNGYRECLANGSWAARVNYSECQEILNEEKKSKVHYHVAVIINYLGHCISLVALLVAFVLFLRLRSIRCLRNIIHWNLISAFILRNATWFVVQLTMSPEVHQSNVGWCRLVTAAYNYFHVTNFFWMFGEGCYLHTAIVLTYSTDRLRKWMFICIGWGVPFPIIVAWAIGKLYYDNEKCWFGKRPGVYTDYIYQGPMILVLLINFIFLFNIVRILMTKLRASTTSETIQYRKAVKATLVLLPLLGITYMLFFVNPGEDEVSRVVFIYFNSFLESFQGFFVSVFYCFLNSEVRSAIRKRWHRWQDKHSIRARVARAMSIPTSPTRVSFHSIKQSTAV
Kind of assay: Measurement of CRF binding inhibitory rate (125I-CRF receptor binding, CHO cellular membrane fraction). As to conditions: human CRF1 receptor expressing CHO cellular membrane fraction, 50 pM 125I-CRF; for inhibition at 1 µM: 1.5 h, read-out: Binding inhibitory rates (% inhibition); for inhibition at 1 µM / Binding inhibitory rates (% inhibition): at the presence of 1 μM of a test compound. The method, then:
A receptor binding experiment was carried out using a human CRF1 receptor expressing CHO cellular membrane fraction and ovine CRF, [^125I]-tyr^0(^125I-CRF). 1000 nM of a test compound was incubated with 1 μg of human CRF receptor expressing CHO cellular membrane fraction and 50 pM of ^125I-CRF in a binding assay buffer (50 mM Tris-HCl, 5 mM EDTA, 10 mM MgCl2, 0.05% CHAPS, 0.1% BSA, 0.5 mM PMSF, 0.1 μg/mL pepstatin, 20 μg/mL leupeptin, pH 7.5). In addition, for measuring nonspecific binding (NSB), 0.1 μM unlabelled human Urocortin was incubated with 5 μg of human CRF receptor expressing CHO cellular membrane fraction and 50 pM of ^125I-CRF in a binding assay buffer. After a binding reaction was carried out at room temperature for 1.5 hr, the membrane was entrapped on a glass filter (UniFilter plate GF-C/Perkin Elmer) by suction filtration using a cell harvester (Perkin Elmer), and washed with ice-cooled 50 mM Tris-HCl (pH 7.5). After drying the glass filter, a liquid scintillation cocktail (Microscinti 0, Perkin Elmer) was added, and the radioactivity of ^125I-CRF remaining on a glass filter was measured using Topcount (Perkin Elmer).
(TB-SB)/(TB-NSB)×100 (SB: radioactivity when a compound is added, TB: maximum binding radioactivity, NSB: nonspecific binding radioactivity) were calculated to obtain binding inhibitory rates under the range of the presence from 0.05 nM to 10 μM of each compound. The IC50 values were calculated by using GraphPad Prism software.

Consider `CCC(OC(C)=O)c1ccc(Cl)c2nc3n(c12)CCCN3c1ccc(Cl)cc1Cl` (racemic) [Example 238, 1-[9-Chloro-1-(2,4-dichlorophenyl)-1,2,3,4-tetrahydropyrimido[1,2-a]benzimidazol-6-yl]propyl acetate], for which the inhibition at 1 µM was determined as 98%.
For `CCC(OC(C)=O)c1ccc(Cl)c2nc3n(c12)CCCN3c1ccc(OC)nc1C` (racemic) [Example 265, 1-[9-Chloro-1-(6-methoxy-2-methylpyridin-3-yl)-1,2,3,4-tetrahydropyrimido[1,2-a]benzimidazol-6-yl]propyl acetate], the inhibition at 1 µM came to 89%.
Regarding `CCC(OC(C)=O)c1ccc(Cl)c2nc3n(c12)CCCN3c1ccc(Cl)cc1Cl` (single isomer, unassigned; (+)) [Example 240, (+)-1-[9-Chloro-1-(2,4-dichlorophenyl)-1,2,3,4-tetrahydropyrimido[1,2-a]benzimidazol-6-yl]propyl acetate], the “Binding inhibitory rates (% inhibition)” value amounted to 97%.
The same measure, in the same setting: in the case of `CCC(OC(C)=O)c1ccc(Cl)c2nc3n(c12)CCCN3c1ccc(OC)nc1C` (single isomer, unassigned; (+)) [Example 267, (+)-1-[9-Chloro-1-(6-methoxy-2-methylpyridin-3-yl)-1,2,3,4-tetrahydropyrimido[1,2-a]benzimidazol-6-yl]propyl acetate] it was 96%; in that of `CCC(O)c1ccc(Cl)c2nc3n(c12)CCCN3c1ccc(Cl)cc1Cl` (single isomer, unassigned; (+)) [Example 439, (+)-1-[9-Chloro-1-(2,4-dichlorophenyl)-1,2,3,4-tetrahydropyrimido[1,2-a]benzimidazol-6-yl]propan-1-ol], 84%.
As for `CCC(OC(C)=O)c1ccc(Cl)c2nc3n(c12)CCCN3c1ccc(Cl)cc1Cl` (single isomer, unassigned; (-)) [Example 239, (−)-1-[9-Chloro-1-(2,4-dichlorophenyl)-1,2,3,4-tetrahydropyrimido[1,2-a]benzimidazol-6-yl]propyl acetate], the inhibition at 1 µM amounted to 90%.
Take `CCC(OC(C)=O)c1ccc(Cl)c2nc3n(c12)CCCN3c1ccc(OC)nc1C` (single isomer, unassigned; (-)) [Example 266, (−)-1-[9-Chloro-1-(6-methoxy-2-methylpyridin-3-yl)-1,2,3,4-tetrahydropyrimido[1,2-a]benzimidazol-6-yl]propyl acetate]: the inhibition at 1 µM amounted to 82%.
The same measure, in the same setting: in the case of `CCC(CC)c1ccc(Cl)c2nc3n(c12)CCCCN3c1cnc(N(C)C)cc1C` [Example 25, 5-[10-Chloro-7-(1-ethylpropyl)-2,3,4,5-tetrahydro-1H-[1,3]diazepino[1,2-a]benzimidazol-1-yl]-N,N,4-trimethylpyridin-2-amine] it was 91%; in that of `CCC(O)c1ccc(Cl)c2nc3n(c12)CCCN3c1ccc(Cl)cc1Cl` (stereo not drawn) [Example 112, 1-[9-Chloro-1-(2,4-dichlorophenyl)-1,2,3,4-tetrahydropyrimido[1,2-a]benzimidazol-6-yl]propan-1-ol], 95%; in that of `COc1ccc(N2CCCn3c2nc2c(Cl)ccc(C(O)(C4CC4)C4CC4)c23)c(C)n1` [Example 276, [9-Chloro-1-(6-methoxy-2-methylpyridin-3-yl)-1,2,3,4-tetrahydropyrimido[1,2-a]benzimidazol-6-yl](dicyclopropyl)methanol], 94%.
Still for that read-out and setting: in the case of `CCN(CC)c1ccc(F)c2nc3n(c12)CCCN3c1ccc(Cl)cc1Cl` [Example 365, 1-(2,4-Dichlorophenyl)-N,N-diethyl-9-fluoro-1,2,3,4-tetrahydropyrimido[1,2-a]benzimidazol-6-amine] it was 95%; in that of `COc1ccc(C(O)(C2CC2)C2CC2)c2c1nc1n2CCCN1c1ccc(Cl)cc1Cl` [Example 369, Dicyclopropyl[1-(2,4-dichlorophenyl)-9-methoxy-1,2,3,4-tetrahydropyrimido[1,2-a]benzimidazol-6-yl]methanol], 96%.
Still for that read-out and setting: in the case of `Cc1cc(Cl)cc(Cl)c1N1CCn2c1nc1c(Cl)ccc(C(O)(C3CC3)C3CC3)c12` [Example 426, [8-Chloro-1-(2,4-dichloro-6-methylphenyl)-2,3-dihydro-1H-imidazo[1,2-a]benzimidazol-5-yl](dicyclopropyl)methanol] it was 98%; in that of `CCC(CCO)c1ccc(Cl)c2nc3n(c12)CCCN3c1ccc(Cl)cc1Cl` (stereo not drawn) [Example 450, 3-[9-Chloro-1-(2,4-dichlorophenyl)-1,2,3,4-tetrahydropyrimido[1,2-a]benzimidazol-6-yl]pentan-1-ol], 98%.
For `COc1ccc(N2CCCn3c2nc2c(Cl)ccc(C(OCC(F)(F)F)C4CC4)c23)c(Cl)c1` (stereo not drawn) [Example 468, 9-Chloro-1-(2-chloro-4-methoxyphenyl)-6-[cyclopropyl(2,2,2-trifluoroethoxy)methyl]-1,2,3,4-tetrahydropyrimido[1,2-a]benzimidazole], the IC50 (0.05 nM to 10 μM of compound, read-out: IC50 values (CRF binding inhibition)) is less than 1000 nM.

Source of the values: patent US8901141B2, “Tricyclic compounds having corticotropin-releasing factor antagonistic activity and pharmaceutical compositions containing them” (Takeda Pharmaceutical Company, Limited, priority 2008, dated 2014).
